From patent US9880171B2, “iASPP phosphorylation and metastatic potential” (LUDWIG INSTITUTE FOR CANCER RESEARCH LTD., priority 2012, dated 2018)
“Also recorded” adds a separate entry of the source.

Experiments:
[1] = tested on: WM278, Me300 and SK-MEL37 melanoma cells; assay: colony formation assay, Example 10, human melanoma cells; assay type: cell-based; settings: agent alone; melanoma cell lines
From the text: FIG. 21. Restoring apoptotic function of p53 cooperates with BRAFV600E inhibition to suppress human melanoma cell growth. […] The bar graphs (mean±SD) were derived from three independent experiments. *p<0.05. Lower images show representative Annexin V/7-AAD profile and dishes, respectively. FIG. 21C. Diagrams showing how cyclinB1/cdk1 phosphorylation controls iASPP localization in interphase (interphase) or mitosis or tumor cells (mitosis/melanomas). Blue and red stars (*) indicate the C- and N-terminal contact residues and the phosphorylation status is labeled as (P). The bottom diagram summarizes the pathways that PLX4032, Nutlin3 and JNJ used to suppress melanoma cell growth.

[2] = tested on: WM278, Me300 and SK-MEL37 melanoma cells; assay: apoptosis by Annexin V / Sub-G1 FACS analysis, Example 10, human melanoma cells; assay type: cell-based; settings: for apoptosis: agent alone, JNJ 0.4 μM, Nutlin3 10-20 μM, 72 hours, melanoma cell lines
Method: (§1) FIG. 20. Restoring p53 by inhibiting mdm2 and iASPP suppresses melanoma growth in vitro and in vivo. FIG. 20A. H1299 cells were treated with DMSO or 10 μM nocodazole in the presence or absence of 2 or 10 μM of mitosis-related kinase inhibitors as indicated. […] FIG. 20B. Left panel: representative p53 level after Nutlin3 treatment for 24 hours in a variety of cells. Right bar graphs show the sub-G1 proportion of WM278 after treatment as that described in FIG. 19B (in upper panel, 10 μM and 20 μM Nutlin3 were used in parallel for comparison). From left to right of the upper right bar graph of FIG. 20B, the bars correspond to DMSO, Nut and JNJ+Nut, respectively. From left to right of the bottom bar graph of FIG. 20B, the bars correspond to DMSO, JNJ, Nut and JNJ+Nut, respectively. FIG. 20C. Me300, SK-MEL37, and B16 cells were treated as above (For B16 panel, 10 μM Nutlin3 was used) and sub-G1 proportion was analyzed. In (B) and (C), the bar graphs (mean±SD) were derived from three independent experiments. *p<0.05. FIG. 20D. Left panel: untreated B16 cells were subcutaneously injected into mice at day 1. […] Compound administration and tumor size measurement were repeated every two days from day 7 onwards. Bar graphs are shown as mean±SD (*p<0.05, n=6). FIG. 20E. Lower panels show representative images of isolated tumors. Right panel: representative H & E staining in B16 tumor section. Bar=20 μm.
FIG. 21. Restoring apoptotic function of p53 cooperates with BRAFV600E inhibition to suppress human melanoma cell growth.

B16 melanoma = assay: xenograft assay, untreated B16 cells, compounds given i.p.; assay type: in vivo, C57BL/6 mice; design: concentration or dose not given beside the values
Method: as §1
At day 1, C57BL/6 mice (7-9 weeks old) were injected s.c. at flanks with 1×10^6 B16 melanoma cells in 100 μl PBS (component treated cells for FIG. 19C, untreated cells for FIGS. 19D and 20D).

B16 melanoma cells [3] = assay: xenograft assay, B16 cells treated in vitro and injected into C57BL/6 mice; assay type: in vivo; settings: 13 days after injection of in vitro treated B16 cells
Method: At day 1, C57BL/6 mice (7-9 weeks old) were injected s.c. at flanks with 1×10^6 B16 melanoma cells in 100 μl PBS (component treated cells for FIG. 19C, untreated cells for FIGS. 19D and 20D). Component (Nutlin3 (40 mg/kg) or JNJ-7706621 (also referred to herein as “JNJ”, 30 mg/kg)) was dissolved in DMSO and i.p. administered every two days since day 3, or day 7 (no component administration for FIG. 19C). Tumor size was measured every two days with vernier caliper. Tumor volumes were calculated using the following formula: (L*W*W)/2, in which L represents the larger diameter of the tumor, and W represents the smaller diameter. On day 13 (tumor area reach ˜1.2 cm diameter in DMSO group), all mice were sacrificed and tumors were isolated and weighed.
Mouse B16 melanoma cells are known to form highly aggressive melanoma in vivo in immune competent C57BL/6 syngeneic mice. Because regulation of p53 by iASPP and mdm2 exists in both human WM278 cells and mouse B16 cells, experiments were carried out to determine if restoring p53 function in B16 cells is able to suppress tumor growth in C57BL/6 mice in vivo. B16 cells, treated with (1) DMSO, (2) Nutlin3, (3) JNJ, or (4) Nutlin3+JNJ, were injected into the flank of 7-9 week-old female C57BL/6 mice.

B16 melanoma cells [4] = assay: apoptosis by Sub-G1 FACS analysis, Example 10, B16 cells; assay type: cell-based, mouse
Method: as §1, with “Lower panels show representative images of isolated tumors. Right panel: representative H & E staining in B16 tumor section. Bar=20 μm.” left out
FIG. 22. […] Me300, SK-MEL37, and B16 cells were treated as described herein and sub-G1 cells were analyzed as described herein.

[5] = tested on: nuclear iASPP and p53 in B16 tumors; assay: immunofluorescence staining of iASPP and p53 in B16 tumor sections; assay type: in vivo, C57BL/6 mice; settings: tumor sections from i.p. treated mice
[6] = tested on: iASPP modification and p53-iASPP binding in WM278 cells; assay: iASPP modification and p53 co-immunoprecipitation in WM278 cells; assay type: cell-based, human
Method: For WB, cells were lysed in buffer containing 8 M urea, 1 M thiourea, 0.5% CHAPS, 50 mM DTT, and 24 mM spermine. A total of 40 μg of protein extract was loaded per lane into SDS-polyacrylamide gels. Gels were transferred onto nitrocellulose membrane (Protran) and the resulting blots incubated first with primary antibody overnight at 4° C. and then with the appropriate secondary horseradish peroxidize-conjugated antibody (Dako). The results were visualized by enhanced chemiluminescent detection (Amersham Biosciences) using X-ray film (Fujifilm). For cell lysate immunoprecipitation, cells were dissolved in NP40 buffer (50 mM Tris-HCl pH 8.0, 150 mM NaCl, 1% NP-40) with protease inhibitor cocktail mix (Roche Diagnostics). Cells were further thoroughly broken by ultrasonication, followed by spinning for 1 hour. Achieved suspension was adjusted to 1-2 mg/ml using NP40 buffer and incubated with 20 μl nickel beads, glutathione beads, or protein A beads (with 2 μg required antibody) for 2 h at room temperature. The beads were washed for four times with NP40 buffer, boiled for 5 min in Laemmli sample buffer, and applied for Western blotting. For pure protein immunoprecipitation, 5-10 μg purified proteins were mixed in NP40 buffer with 1 mg/ml BSA for 2 h at room temperature.

[7] = i.p. administration from day 3 after B16 inoculation
[8] = i.p. administration from day 7 after B16 inoculation

Row | SMILES | suppression of cell growth [1] | increase in Nutlin3-induced apoptosis ([2]; Me300 and WM278 cells, Annexin V or Sub-G1) | apoptosis [2] | suppression of B16 melanoma growth (B16 melanoma; [7]) [%] | suppression of B16 melanoma growth (B16 melanoma; [8]) [%] | tumor size and weight, of control (DMSO-treated B16 cell group) (B16 melanoma cells [3]) | increase in Nutlin3-induced apoptosis (B16 melanoma cells [4]) | iASPP expression in B16 tumors [5] | p53 expression in B16 tumors [5] | amount of modified iASPP ([6]; 0.4 μM JNJ or 10 μM nocodazole overnight) | binding of iASPP to p53 (co-immunoprecipitation) ([6]; 0.4 μM JNJ, listed as JNJ)
1 | Nc1nc(Nc2ccc(S(N)(=O)=O)cc2)nn1C(=O)c1c(F)cccc1F [JNJ-7706621] | limited | 3-4 fold | only a small percentage of cells | 36 | 30 | around 40% | 3-4 fold | clearly reduced nuclear iASPP expression | no effect on p53 expression | reduced the amount of modified iASPP | failed to co-immunoprecipitate iASPP; also recorded: able to prevent iASPP from binding to p53
2 | COc1ccc(C2=N[C@@H](c3ccc(Cl)cc3)[C@@H](c3ccc(Cl)cc3)N2C(=O)N2CCNC(=O)C2)c(OC(C)C)c1 [Nutlin3] | limited |  | only a small percentage of cells | 22 | 5 | ~60% |  | minimal impact on iASPP expression | induced nuclear p53 expression |  | 
